Data reported in patent US8440710B2, “HSL inhibitors useful in the treatment of diabetes” (Hoffmann-La Roche Inc., priority 2009, dated 2013).

Molecular target: T1, human HSL (Homo sapiens, UniProt Q05469)
T1 construct: generate a full length human HSL ORF with a 3′-His6 tag; made in house; host or cells: High 5 insect cells (baculovirus, pFast-BAC)
T1 sequence (Q05469 1-1076): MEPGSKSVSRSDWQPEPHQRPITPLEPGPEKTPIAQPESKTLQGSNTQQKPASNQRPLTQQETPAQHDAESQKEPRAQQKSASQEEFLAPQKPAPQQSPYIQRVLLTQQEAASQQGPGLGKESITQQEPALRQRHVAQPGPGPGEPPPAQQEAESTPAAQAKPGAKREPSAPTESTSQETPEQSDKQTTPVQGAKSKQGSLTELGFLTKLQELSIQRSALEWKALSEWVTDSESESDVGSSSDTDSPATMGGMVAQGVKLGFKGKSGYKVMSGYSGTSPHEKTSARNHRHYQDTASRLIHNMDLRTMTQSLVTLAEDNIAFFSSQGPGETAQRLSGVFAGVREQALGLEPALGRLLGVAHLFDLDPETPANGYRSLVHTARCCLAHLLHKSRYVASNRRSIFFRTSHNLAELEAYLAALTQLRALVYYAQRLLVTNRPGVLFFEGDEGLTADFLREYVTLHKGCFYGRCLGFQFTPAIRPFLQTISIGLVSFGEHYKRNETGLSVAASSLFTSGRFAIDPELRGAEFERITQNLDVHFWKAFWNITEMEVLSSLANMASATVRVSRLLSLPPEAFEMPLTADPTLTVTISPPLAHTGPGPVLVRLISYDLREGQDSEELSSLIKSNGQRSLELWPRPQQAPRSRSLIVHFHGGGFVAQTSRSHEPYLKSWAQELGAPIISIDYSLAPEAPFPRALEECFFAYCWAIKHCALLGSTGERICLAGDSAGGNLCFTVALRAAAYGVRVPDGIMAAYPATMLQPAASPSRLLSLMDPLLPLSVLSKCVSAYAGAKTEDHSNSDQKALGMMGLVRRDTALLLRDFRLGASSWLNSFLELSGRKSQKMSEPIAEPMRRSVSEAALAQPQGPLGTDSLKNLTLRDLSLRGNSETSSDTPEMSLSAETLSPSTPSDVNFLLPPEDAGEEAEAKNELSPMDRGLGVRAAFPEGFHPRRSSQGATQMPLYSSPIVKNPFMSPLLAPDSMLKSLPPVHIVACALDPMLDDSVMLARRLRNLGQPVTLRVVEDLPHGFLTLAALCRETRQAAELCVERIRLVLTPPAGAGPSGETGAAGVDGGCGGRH
Assay: Human Hormone-Sensitive Lipase (HSL) enzyme inhibition assay (colorimetric, DMPT substrate)
Format: biochemical
Settings: human full length HSL-His6, 2,3-dimercapto-1-propanol tributyrate substrate, 37° C. 20 minutes, absorbance at 405 nm; read-out: HSL hum IC50
How it was run: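 Full-length human HSL with C-terminal His6, expressed in baculovirus-infected High 5 cells and Ni-NTA purified, was added (15 ug/ml stock) to 1.5 mM DMPT in 100 mM MOPS pH 7.2, 0.2 mg/ml fatty acid-free BSA containing compound. After 20 min at 37 °C, DTNB with SDS/Triton X-100 was added; A405 read after 15 min at RT.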

Work on `COCC[C@]1(O)CC[C@]2(CCN(c3ccc(OC(F)(F)F)cc3)C2=O)CC1` [Example 119, (5α,8α)-8-Hydroxy-8-(2-methoxy-ethyl)-2-(4-trifluoromethoxy-phenyl)-2-aza-spiro[4.5]decan-1-one] yielded an IC50 of 30 nM.

`COCC[C@]1(OC)CC[C@]2(CCN(c3ccc(OC(F)(F)F)cc3)C2=O)CC1` [Example 120, (5α,8α)-8-Methoxy-8-(2-methoxy-ethyl)-2-(4-trifluoromethoxy-phenyl)-2-aza-spiro[4.5]decan-1-one] was tested, and the IC50 was 100 nM.

Compound `COC[C@]1(O)CC[C@]2(CCN(c3ccc(C(F)(F)F)cc3)C2=O)CC1` [Example 121, (5α,8α)-8-Hydroxy-8-methoxymethyl-2-(4-trifluoromethyl-phenyl)-2-aza-spiro[4.5]decan-1-one] has an IC50 of 100 nM.

`CCC[C@]1(O)CC[C@]2(CCN(c3ccc(CCOC)cc3)C2=O)CC1` [Example 122, (5α,8α)-8-Hydroxy-2-[4-(2-methoxy-ethyl)-phenyl]-8-propyl-2-aza-spiro[4.5]decan-1-one] showed an IC50 of 50 nM.

In the case of `COCCc1ccc(N2CC[C@]3(CC[C@@](O)(C(F)(F)F)CC3)C2=O)cc1` [Example 123, (5α,8α)-8-Hydroxy-2-[4-(2-methoxy-ethyl)-phenyl]-8-trifluoromethyl-2-aza-spiro[4.5]decan-1-one], the IC50 is reported as 420 nM.

Work on `COCCc1ccc(N2CC[C@]3(CC[C@@](O)(CC(C)C)CC3)C2=O)cc1` [Example 124, (5α,8α)-8-Hydroxy-8-isobutyl-2-[4-(2-methoxy-ethyl)-phenyl]-2-aza-spiro[4.5]decan-1-one] yielded an IC50 of 20 nM.

`COCCc1ccc(N2CC[C@]3(CC[C@](O)(CC(C)C)CC3)C2=O)cc1` [Example 125, (5α,8β)-8-Hydroxy-8-isobutyl-2-[4-(2-methoxy-ethyl)-phenyl]-2-aza-spiro[4.5]decan-1-one] showed an IC50 of 1810 nM.

For `COCCc1ccc(N2CC[C@]3(CC[C@@](O)(CC(C)(C)C)CC3)C2=O)cc1` [Example 126, (5α,8α)-8-(2,2-Dimethyl-propyl)-8-hydroxy-2-[4-(2-methoxy-ethyl)-phenyl]-2-aza-spiro[4.5]decan-1-one], the IC50 was 10 nM.

`C=C(C)[C@]1(O)CC[C@]2(CCN(c3ccc(CCOC)cc3)C2=O)CC1` [Example 127, (5α,8α)-8-Hydroxy-8-isopropenyl-2-[4-(2-methoxy-ethyl)-phenyl]-2-aza-spiro[4.5]decan-1-one] showed an IC50 of 120 nM.

For `COCCc1ccc(N2CC[C@]3(CC[C@@](O)(C(C)C)CC3)C2=O)cc1` [Example 128, (5α,8α)-8-Hydroxy-8-isopropyl-2-[4-(2-methoxy-ethyl)-phenyl]-2-aza-spiro[4.5]decan-1-one], the IC50 was 50 nM.

Work on `CCCC[C@]1(O)CC[C@]2(CCN(c3ccc(CCOC)cc3)C2=O)CC1` [Example 129, (5α,8α)-8-Butyl-8-hydroxy-2-[4-(2-methoxy-ethyl)-phenyl]-2-aza-spiro[4.5]decan-1-one] yielded an IC50 of 20 nM.

`COCCCc1ccc(N2CC[C@]3(CC[C@@](O)(C(C)C)CC3)C2=O)cc1` [Example 130, (5α,8α)-8-Hydroxy-8-isopropyl-2-(4-(3-methoxypropyl)phenyl)-2-aza-spiro[4.5]decan-1-one] was tested, and the IC50 was 50 nM.

`CC[C@]1(O)CC[C@]2(CCN(c3ccc(C(C)(C)COC)cc3)C2=O)CC1` [Example 131, (5α,8α)-8-Ethyl-8-hydroxy-2-[4-(2-methoxy-1,1-dimethyl-ethyl)-phenyl]-2-aza-spiro[4.5]decan-1-one] gave an IC50 of 90 nM.

In the case of `CCC[C@]1(O)CC[C@]2(CCN(c3ccc(C(C)(C)COC)cc3)C2=O)CC1` [Example 132, (5α,8α)-8-Hydroxy-2-[4-(2-methoxy-1,1-dimethyl-ethyl)-phenyl]-8-propyl-2-aza-spiro[4.5]decan-1-one], the IC50 is reported as 20 nM.

`CCC[C@]1(O)CC[C@]2(CCN(c3ccc([C@H](O)C(F)(F)F)cc3)C2=O)CC1` [Example 133a, (5α,8α)-8-Hydroxy-8-propyl-2-[4-((S)-2,2,2-trifluoro-1-hydroxy-ethyl)-phenyl]-2-aza-spiro[4.5]decan-1-one] was tested, and the IC50 was 50 nM.

Work on `CCC[C@]1(O)CC[C@]2(CCN(c3ccc([C@@H](O)C(F)(F)F)cc3)C2=O)CC1` [Example 133b, (5α,8α)-8-Hydroxy-8-propyl-2-[4-((R)-2,2,2-trifluoro-1-hydroxy-ethyl)-phenyl]-2-aza-spiro[4.5]decan-1-one] yielded an IC50 of 30 nM.

Compound `CCC[C@]1(O)CC[C@@]2(CCN(c3ccc(C(O)C(F)(F)F)cc3)C2=O)CC1` (stereo partly drawn) [Example 134, (5α,8β)-8-Hydroxy-8-propyl-2-(4-(2,2,2-trifluoro-1-hydroxyethyl)phenyl)-2-aza-spiro[4.5]decan-1-one] has an IC50 of 1180 nM.

For `CC(C)[C@]1(O)CC[C@]2(CCN(c3ccc([C@@H](O)C(F)(F)F)cc3)C2=O)CC1` [Example 135, (5α,8α)-8-Hydroxy-8-isopropyl-2-[4-((R)-2,2,2-trifluoro-1-hydroxy-ethyl)-phenyl]-2-aza-spiro[4.5]decan-1-one], the IC50 was 20 nM.

`CC(C)[C@]1(O)CC[C@@]2(CCN(c3ccc([C@@H](O)C(F)(F)F)cc3)C2=O)CC1` [Example 136, (5α,8β)-8-Hydroxy-8-isopropyl-2-(4-((R)-2,2,2-trifluoro-1-hydroxy-ethyl)-phenyl)-2-aza-spiro[4.5]decan-1-one] was tested, and the IC50 was 2760 nM.

For `CO[C@H](c1ccc(N2CC[C@]3(CC[C@@](O)(C(C)C)CC3)C2=O)cc1)C(F)(F)F` [Example 137, (5α,8α)-8-Hydroxy-8-isopropyl-2-(4-((R)-2,2,2-trifluoro-1-methoxyethyl)phenyl)-2-aza-spiro[4.5]decan-1-one], the IC50 was 10 nM.

With `COC[C@]1(O)CC[C@]2(CCN(c3ccc([C@@H](O)C(F)(F)F)cc3)C2=O)CC1` [Example 138, (5α,8α)-8-Hydroxy-8-(methoxymethyl)-2-(4-((R)-2,2,2-trifluoro-1-hydroxyethyl)phenyl)-2-aza-spiro[4.5]decan-1-one] the IC50 was 100 nM.

`COC[C@]1(O)CC[C@]2(CCN(c3ccc([C@@H](OC)C(F)(F)F)cc3)C2=O)CC1` [Example 139, (5α,8α)-8-Hydroxy-8-(methoxymethyl)-2-(4-((R)-2,2,2-trifluoro-1-methoxyethyl)phenyl)-2-aza-spiro[4.5]decan-1-one] gave an IC50 of 40 nM.

Compound `CCO[C@H](c1ccc(N2CC[C@]3(CC[C@@](O)(COC)CC3)C2=O)cc1)C(F)(F)F` [Example 140, (5α,8α)-2-(4-((R)-1-Ethoxy-2,2,2-trifluoroethyl)phenyl)-8-hydroxy-8-(methoxymethyl)-2-aza-spiro[4.5]decan-1-one] has an IC50 of 160 nM.

For `CCCO[C@H](c1ccc(N2CC[C@]3(CC[C@@](O)(COC)CC3)C2=O)cc1)C(F)(F)F` [Example 141, (5α,8α)-8-Hydroxy-8-(methoxymethyl)-2-(4-((R)-2,2,2-trifluoro-1-propoxyethyl)phenyl)-2-aza-spiro[4.5]decan-1-one], the IC50 was 30 nM.

`C=CC[C@]1(O)CC[C@]2(CCN(c3ccc(O[C@H](C)C(F)(F)F)cc3)C2=O)CC1` [Example 142, (5α,8α)-8-Allyl-8-hydroxy-2-[4-((R)-2,2,2-trifluoro-1-methyl-ethoxy)-phenyl]-2-aza-spiro[4.5]decan-1-one] was tested, and the IC50 was 10 nM.

In the case of `C=CC[C@]1(O)CC[C@@]2(CCN(c3ccc(O[C@H](C)C(F)(F)F)cc3)C2=O)CC1` [Example 143, (5α,8β)-8-Allyl-8-hydroxy-2-[4-((R)-2,2,2-trifluoro-1-methyl-ethoxy)-phenyl]-2-aza-spiro[4.5]decan-1-one], the IC50 is reported as 1480 nM.
